# Reference: PMC8617031, “Development of a BCL-xL and BCL-2 dual degrader with improved anti-leukemic activity,” (Nature Communications, 2021)
# “And” between values parts separate entries of the source, which are not always exact repeats. Identical values can stand only once.
# Test system: Flag-BCL-xL (WT and lysine mutants)
# Experiment: Degradation of Flag-BCL-xL WT and lysine mutants in transfected 293T cells
# Format: cell-based, human
# Conditions: DMSO = 100
# Experimental: Cells were collected, washed once with ice-cold phosphate-buffered saline, pH 7.2 (PBS, cat. no. 20012027; Thermo Fisher Scientific) and lysed in RIPA lysis buffer (Cat. No. BP-115DG, Boston Bio Products, Ashland, MA, USA) supplemented with protease and phosphatase inhibitor cocktails (Cat. No. PPC1010, Sigma-Aldrich, St. Louis, MO, USA) through sonication. The samples were centrifuged at 14,000 r.p.m. for 5 min and the supernatants were transferred into a new tube. The protein concentration in the supernatants was determined using the Pierce BCA protein Assay kit (cat. no. 23225, Thermo Fisher Scientific). The protein concentration was normalized, and the samples were reduced in 4× Laemmli’s SDS-sample buffer (cat. no. BP-110R, Boston Bio Products) and denatured at 95 °C for 5 min. An equal amount of protein samples (20–40 μg per lane) were resolved using precast 4–20% Tris-glycine gels (Mini-PROTEAN TGX, cat. no. 456–1094, Bio-Rad), and resolved proteins were transferred onto 0.2-µm pore size polyvinylidene difluoride (PVDF) blotting membranes (cat. no. LC2002, Thermo Fisher Scientific) using mini trans-blot electrophoretic transfer cell (Bio-Rad). The membranes were blocked with non-fat dry milk (5% wt/vol) in 1× Tris-buffered saline-Tween-20 (TBST, cat. no. J77500, Affymetrix) for 1 h at room temperature, and were subsequently probed with primary antibodies at a predetermined optimal concentration in non-fat dry milk (5% wt/vol in TBST) overnight at 4 °C. The membranes were washed three times (5 min each) in TBST and then incubated with horse radish peroxidase (HRP)-conjugated secondary antibodies for 1 h at room temperature. Following sufficient washing with TBST, the membranes were exposed with chemiluminescent HRP substrate (cat. no. WBKLS0500, MilliporeSigma), and the signal was detected using the ChemiDoc MP Imaging System (Bio-Rad) and quantified using the ImageJ (v1.53a) software from NIH.
# Plasmids were purified on miniprep columns according to the manufacturer’s protocol (Cat. No. 27106 Qiagen, Germantown, MD, USA). The construction of Flag-BCL-xL (pDL2009) and Flag-BCL-xL-K-ko (pDL2129) were described previously. Flag-BCL-2 was a gift from Clark Distelhorst (Addgene plasmid # 18003, Watertown, MA, USA). Plasmids Flag-BCL-xL-K16-only, Flag-BCL-xL-K20-only, Flag-BCL-xL-K157-only, Flag-BCL-xL-K-ko-R34K, Flag-BCL-xL-K-ko-R102K, Flag-BCL-xL-K-ko-R132K, Flag-BCL-xL-K-ko-G186K, Flag-BCL-2-K17R, Flag-BCL-2-K22R, and Flag-BCL-2-K17/22R were constructed by using Q5® Site-Directed Mutagenesis Kit (Cat. No. E0554S, NEB, Ipswich, MA, USA) and the following primer sets. Flag-BCL-xL-K-ko (pDL2129) or Flag-BCL-2 was used as the template. Flag-BCL-xL-K16-only: forward (5′-[…]a[…]-3′) and reverse (5′-[…]-3′); Flag-BCL-xL-K20-only: forward (5′-[…]a[…]-3′) and reverse (5′-[…]-3′); Flag-BCL-xL-K157-only: forward (5′-[…]a[…]-3′) and reverse (5′-[…]-3′); Flag-BCL-xL-R34K: forward (5′-[…]a[…]-3′) and reverse (5′-[…]-3′); Flag-BCL-xL-R102K: forward (5′-[…]aa[…]-3′) and reverse (5′-[…]-3′); Flag-BCL-xL-R132K: forward (5′-[…]aa[…]-3′) and reverse (5′-[…]-3′); Flag-BCL-xL-G186K: forward (5′-[…]aa[…]-3′) and reverse (5′-[…]-3′); Flag-BCL-2-K17R: forward (5′-[…]g[…]-3′) and reverse (5′-[…]-3′); Flag-BCL-2-K22R: forward (5′-[…]g[…]-3′) and reverse (5′-[…]-3′); Flag-BCL-2-K17/22R: forward (5′-cattatag[…]-3′) and reverse (5′-gatgtacc[…]-3′). DNA sequences in all these plasmids were authenticated by automatic sequencing. […] The cells were harvested using RIPA lysis buffer containing protease and phosphatase inhibitor as mentioned above. The primers used in this study are also listed in Supplementary Table 1.
Compound,"relative Flag-BCL-xL protein content (K16-only mutant, 753b-treated 293T, Fig. 5a)","relative Flag-BCL-xL protein content (K20-only mutant, 753b-treated 293T, Fig. 5a)","relative Flag-BCL-xL protein content (WT Flag-BCL-xL, 753b-treated 293T, Fig. 5a, 3 replicates)","relative Flag-BCL-xL protein content (K157-only mutant, DT2216-treated 293T, Fig. 1f)","relative Flag-BCL-xL protein content (K-ko mutant, DT2216-treated 293T, Fig. 1f)","relative Flag-BCL-xL protein content (K-ko-G186K mutant, DT2216-treated 293T, Fig. 1f)","relative Flag-BCL-xL protein content (K-ko-R34K mutant, DT2216-treated 293T, Fig. 1f)","relative Flag-BCL-xL protein content (K-ko-R102K mutant, DT2216-treated 293T, Fig. 1f)","relative Flag-BCL-xL protein content (K-ko-R132K mutant, DT2216-treated 293T, Fig. 1f)","relative Flag-BCL-xL protein content (WT Flag-BCL-xL, DT2216-treated 293T, Fig. 1f, 3 replicates)"
Cc1ncsc1-c1ccc([C@H](C)NC(=O)[C@@H]2C[C@@H](O)CN2C(=O)[C@@H](NC(=O)CCCCCCC(=O)N2CCN(C[C@]3(C)CCC(c4ccc(Cl)cc4)=C(CN4CCN(c5ccc(C(=O)NS(=O)(=O)c6ccc(N[C@H](CCN7CCOCC7)CSc7ccccc7)c(S(=O)(=O)C(F)(F)F)c6)cc5)CC4)C3)CC2)C(C)(C)C)cc1 [753b],86 and 85 and 66,29 and 42 and 46,34 and 30 and 42,,,,,,,
Cc1ncsc1-c1ccc([C@H](C)NC(=O)[C@@H]2C[C@@H](O)CN2C(=O)[C@@H](NC(=O)CCCCCC(=O)N2CCN(CC[C@H](CSc3ccccc3)Nc3ccc(S(=O)(=O)NC(=O)c4ccc(N5CCN(CC6=C(c7ccc(Cl)cc7)CCC(C)(C)C6)CC5)cc4)cc3S(=O)(=O)C(F)(F)F)CC2)C(C)(C)C)cc1 [DT2216],,,,91 and 97 and 105,95 and 102 and 90,81 and 88 and 95,50 and 41 and 44,64 and 57 and 51,55 and 50 and 58,7 and 33 and 22
